Measurements as given in PubChem BioAssay (NCI).
“And” between values parts separate entries of the source, which are not always exact repeats. Equal values may be shown once.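 Five compound concentrations were applied to cells in 96-well plates for 48 hours; endpoints were derived by simple linear interpolation of the resulting dose-response curve. Abbreviation: GI50, concentration required for 50% inhibition of growth. TGI denotes the concentration required for complete inhibition of growth.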

Legend:
Test in all cases: NCI tumour cell line growth inhibition, 48 h
A498 renal = test system: A498 renal
A549 NSCLC = test system: A549 NSCLC
HS 578T breast = test system: HS 578T breast
MDA-MB-231 breast = test system: MDA-MB-231 breast
NCI-H226 lung = test system: NCI-H226 lung
OVCAR-5 ovarian = test system: OVCAR-5 ovarian
SN12C renal = test system: SN12C renal
SNB-75 CNS = test system: SNB-75 CNS
SW-620 colon = test system: SW-620 colon
UO-31 renal = test system: UO-31 renal

Row | SMILES | GI50 (A498 renal) | TGI (A498 renal) | GI50 (A549 NSCLC) | TGI (A549 NSCLC) | GI50 (HS 578T breast) | TGI (HS 578T breast) | GI50 (MDA-MB-231 breast) | TGI (MDA-MB-231 breast) | GI50 (NCI-H226 lung) | TGI (NCI-H226 lung) | GI50 (OVCAR-5 ovarian) | TGI (OVCAR-5 ovarian) | GI50 (SN12C renal) | TGI (SN12C renal) | GI50 (SNB-75 CNS) | TGI (SNB-75 CNS) | GI50 (SW-620 colon) | TGI (SW-620 colon) | GI50 (UO-31 renal) | TGI (UO-31 renal)
1 | COc1ccc(/C=C2\CCC/C(=C\c3ccc(OC)c(OC)c3)C2=O)cc1OC | 3.88 µM | > 32.5 µM | 1.79 µM | > 32.5 µM | 7.95 µM | > 32.5 µM | 10.5 µM | > 32.5 µM | 21.9 µM | > 32.5 µM | 25 µM | > 32.5 µM | 8.79 µM | > 32.5 µM | 1.29 µM | 12.8 µM | 1.49 µM | 24.1 µM | 3.63 µM | > 32.5 µM
2 | CNCc1ccc(-c2cc(-c3nc(-c4ccc(S(=O)(=O)C(C)C)cc4)cnc3N)on2)cc1 |  | 2.03 µM |  |  | 4.61 µM | 38 µM | 3.8 µM | 19.6 µM | 18.8 µM | 44.1 µM | 4.02 µM | 21.9 µM | 8.58 µM | 33.4 µM | 11.4 µM | 26.4 µM | 1.43 µM | 3.78 µM | 1.35 µM | 14 µM
3 | COc1cc2nnc3c4cccnc4[nH]c3c2cc1OC | 9.26 µM and 2.74 µM | 26.2 µM and 12.4 µM | 16 µM and 7.9 µM | 50 µM and 31.7 µM | 4.21 µM and 3.7 µM | 50 µM and 82.7 µM | 3.14 µM and 2.69 µM | 50 µM and > 100 µM | 5.44 µM and 1.94 µM | 21.4 µM and 5.11 µM | 7.26 µM and 2.53 µM | 50 µM and 7.24 µM | 1.9 µM and 2.27 µM | 19.2 µM and 8.47 µM | 2.35 µM and 1.48 µM | 21.9 µM and 7.45 µM | 0.961 µM and 0.444 µM | 50 µM and > 100 µM | 1.52 µM and 0.486 µM | 10.9 µM and 2.66 µM
4 | CCN(CC)c1ccc2nc3ccc(=[N+](CC)CC)cc-3oc2c1 | 1.01 µM | 17.5 µM | 0.826 µM | > 100 µM | 1.37 µM | 5.94 µM | 0.0667 µM | 2.96 µM | 0.729 µM | 3.8 µM | 0.442 µM | 2.92 µM | 0.153 µM | 15.2 µM | 1.31 µM | 6.85 µM | 0.0449 µM | > 100 µM | 2.63 µM | 25 µM
5 | O=C1c2ccccc2C(=O)c2c(NC3CCCCC3)ccc(Nc3ccc(S(=O)(=O)O)cc3)c21 |  | > 100 µM |  | > 100 µM |  | > 100 µM |  | 69.9 µM |  | > 100 µM |  | > 100 µM |  | 60.5 µM |  | > 100 µM |  | > 100 µM |  | > 100 µM
6 | CCCCCCCCCCCCCCNC(=O)Nc1ccc(Cl)c(Cl)c1 | 2.13 µM | > 26.4 µM | 3.34 µM | > 100 µM | 3.14 µM | 15 µM | 2.56 µM | 7.64 µM | 3.21 µM | > 100 µM | 3.69 µM | > 100 µM | 2.85 µM | > 100 µM | 1.98 µM | 9.57 µM | 3.18 µM | > 100 µM | 1.57 µM | 
7 | CN(C)c1ccc(-c2cc(-c3ccc(Nc4nc(Nc5ccc(Cl)cc5)nc(Nc5ccc(Cl)cc5)n4)cc3)nc(N)c2C#N)cc1 | 6.41 µM | > 100 µM | 13.9 µM | > 100 µM | 3.94 µM | 59.3 µM | 5.51 µM | 60.3 µM | 3.58 µM | 24.4 µM | > 100 µM | > 100 µM | 13.8 µM | > 100 µM | 3.05 µM | > 100 µM | 5.6 µM | 22.7 µM | 47.6 µM | > 100 µM
8 | COCCOC1=C(Cl)C(=O)c2ccccc2C1=O | 4.35 µM | 18.2 µM | 4.33 µM | 21.8 µM | 2.94 µM | 12.7 µM | 2.81 µM | 11.7 µM | 4.18 µM | 15.8 µM | 3.22 µM | 9.52 µM | 3.91 µM | 16.5 µM | 2.75 µM | 10.1 µM | 1.7 µM | 3.32 µM | 3.07 µM | 16 µM
9 | CCc1ccc(Nc2cc(C)c3ccc(O)cc3n2)cc1 | 16.6 µM | 30.6 µM |  |  | 10.3 µM | 31.8 µM | 3.12 µM | 13.7 µM | 19.8 µM | 54.3 µM | 8.49 µM | 21.3 µM | 6.24 µM | 23.5 µM | 11.3 µM | 24.8 µM | 5.48 µM | 20.2 µM | 4.54 µM | 23 µM
10 | CCOC(=O)/C(=C\c1cccc(C)c1)C(C)=O |  | 52 µM |  | > 100 µM |  | 51.3 µM |  | 28.9 µM |  | > 100 µM |  | 31 µM |  | 41.7 µM |  | 25.2 µM |  | 27 µM |  | 33.7 µM
11 | CCC(c1ccccc1)c1noc(CCN(CC)CC)n1 (stereo not drawn) | > 81.9 µM | > 100 µM | 42.1 µM | > 100 µM | > 40.7 µM | > 72.8 µM | 26.4 µM | > 91.2 µM | 23.8 µM | 70.9 µM | 17.1 µM | 35.6 µM | 27.1 µM | > 94.8 µM | 21.7 µM | > 100 µM | 21 µM | > 68.1 µM | 32.2 µM | > 100 µM
12 | COc1ccccc1Oc1nccc(-c2c(-c3ccc(F)cc3)ncn2C2CCNCC2)n1 | > 25 µM | > 25 µM | > 25 µM | > 25 µM | > 6.75 µM | > 23 µM | 14.5 µM | > 25 µM |  |  | > 25 µM | > 25 µM | > 25 µM | > 25 µM | > 16.6 µM | > 25 µM | > 25 µM | > 25 µM | 6.86 µM | > 25 µM
13 | Cc1cc(Cl)nc(N(CCNc2ccnc3cc(Cl)ccc23)Cc2ccco2)n1 | 1.74 µM | 5.51 µM | 3.1 µM | 13.1 µM | 2.27 µM | 6.32 µM | 1.85 µM | 3.76 µM |  |  | 2.72 µM | 8.11 µM | 1.98 µM | 3.95 µM | 1.57 µM | 4.18 µM | 1.85 µM | 4.45 µM | 1.42 µM | 2.93 µM
14 | O=C(c1cccs1)c1c(C(F)(F)F)n([O-])c2cc(Cl)c(Cl)cc2[n+]1=O | 1.27 µM | 2.61 µM | 2.72 µM | 5.85 µM | 2.02 µM | 4.11 µM | 0.647 µM | 2.07 µM | 1.96 µM | 3.79 µM | 1.77 µM | 3.16 µM | 1.31 µM | 2.83 µM |  |  | 0.0876 µM | 0.865 µM | 1.9 µM | 4.14 µM
